Reference: ChEMBL document CHEMBL5154644, “Design, Synthesis, and Structure-Activity Relationship Optimization of Pyrazolopyrimidine Amide Inhibitors of Phosphoinositide 3-Kinase γ (PI3Kγ)” (J Med Chem, 2022)

How the values were obtained:
[1] = Hepatic clearance in Sprague-Dawley rat by LC-MS/MS analysis; type: ADME; conditions: in vivo
[2] = molecular target: T1, Phosphatidylinositol 4,5-bisphosphate 3-kinase catalytic subunit gamma isoform (Homo sapiens, UniProt P48736); experiment: Inhibition of PI3Kgamma (unknown origin) in […] stimulated human THP-1 cells assessed as reduction in Akt phosphorylation level at Ser473 residue preincubated for 60 mins followed by rhMCP-1 stimulation and measured after 2 mins by AlphaLisa assay; type: cell-based
[3] = molecular target: T1, Phosphatidylinositol 4,5-bisphosphate 3-kinase catalytic subunit gamma isoform; experiment: Inhibition of PI3Kgamma (unknown origin) using PIP2 as substrate preincubated for 1 hr followed by substrate addition and measured after 60 mins in presence of ATP by ADP-glo assay
[4] = Metabolic stability in human hepatocytes assessed as intrinsic clearance per 10^6 cells at 0.5 uM by LC-MS/MS analysis; type: ADME, cell-based, Hepatocyte; conditions: read-out: CLH
[5] = Metabolic stability in rat hepatocyte assessed as intrinsic clearance per 10^8 cells at 0.5 uM by LC-MS/MS analysis; type: ADME, cell-based; conditions: hepatocytes
[6] = molecular target: Phosphatidylinositol 4,5-bisphosphate 3-kinase catalytic subunit alpha isoform (Homo sapiens, UniProt P42336); experiment: Inhibition of PI3Kalpha (unknown origin) using PIP2 as substrate preincubated for 1 hr followed by substrate addition and measured after 60 mins in presence of ATP by ADP-glo assay
[7] = molecular target: T2, Phosphatidylinositol 4,5-bisphosphate 3-kinase catalytic subunit delta isoform (Homo sapiens, UniProt O00329); experiment: Inhibition of PI3Kdelta (unknown origin) using PIP2 as substrate preincubated for 1 hr followed by substrate addition and measured after 60 mins in presence of ATP by ADP-glo assay
T2 sequence (O00329 whole entry): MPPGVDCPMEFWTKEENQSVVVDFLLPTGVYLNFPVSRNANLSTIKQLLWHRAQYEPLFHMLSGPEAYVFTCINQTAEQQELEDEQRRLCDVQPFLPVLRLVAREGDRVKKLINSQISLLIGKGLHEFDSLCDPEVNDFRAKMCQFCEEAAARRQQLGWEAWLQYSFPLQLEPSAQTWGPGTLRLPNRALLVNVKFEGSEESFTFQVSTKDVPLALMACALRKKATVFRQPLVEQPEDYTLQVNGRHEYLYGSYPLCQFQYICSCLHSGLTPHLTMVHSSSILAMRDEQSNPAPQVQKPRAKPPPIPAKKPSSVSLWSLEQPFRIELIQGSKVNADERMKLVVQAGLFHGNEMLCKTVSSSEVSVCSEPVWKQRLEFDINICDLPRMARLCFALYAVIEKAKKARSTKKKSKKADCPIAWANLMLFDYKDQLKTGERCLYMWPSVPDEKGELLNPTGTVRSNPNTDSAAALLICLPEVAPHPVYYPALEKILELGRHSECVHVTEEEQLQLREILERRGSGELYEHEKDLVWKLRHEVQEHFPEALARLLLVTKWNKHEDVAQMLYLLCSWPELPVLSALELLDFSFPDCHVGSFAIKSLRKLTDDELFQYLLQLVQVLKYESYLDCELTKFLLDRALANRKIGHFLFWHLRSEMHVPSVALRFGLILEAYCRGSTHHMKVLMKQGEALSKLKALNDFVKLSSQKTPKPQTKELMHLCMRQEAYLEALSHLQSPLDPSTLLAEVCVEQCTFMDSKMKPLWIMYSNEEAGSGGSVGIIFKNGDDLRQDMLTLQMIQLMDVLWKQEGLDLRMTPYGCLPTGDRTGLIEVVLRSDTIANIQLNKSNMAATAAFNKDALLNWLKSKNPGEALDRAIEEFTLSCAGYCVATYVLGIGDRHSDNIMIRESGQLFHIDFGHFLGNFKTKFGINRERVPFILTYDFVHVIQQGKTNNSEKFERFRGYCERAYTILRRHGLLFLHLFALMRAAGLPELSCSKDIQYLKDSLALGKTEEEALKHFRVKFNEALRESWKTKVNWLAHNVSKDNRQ

Homo sapiens [8] = organism: Homo sapiens; experiment: Selectivity ratio of IC50 for inhibition of PI3Kdelta (unknown origin) to IC50 for inhibition of PI3Kgamma (unknown origin)
CYP3A4 = CYP3A4 (Homo sapiens, UniProt P08684); experiment: in vitro; conditions: human liver microsomes, probe midazolam
Description: Time dependent inhibition of CYP3A4 in human liver microsomes at 10 uM using midazolam as substrate preincubated for 30 mins in presence of NADPH by LC/MS/MS analysis relative to control

Homo sapiens [9] = organism: Homo sapiens; experiment: Selectivity ratio of IC50 for inhibition of PI3Kalpha (unknown origin) to IC50 for inhibition of PI3Kgamma (unknown origin)

Chain of CYP3A4 (P08684 whole entry): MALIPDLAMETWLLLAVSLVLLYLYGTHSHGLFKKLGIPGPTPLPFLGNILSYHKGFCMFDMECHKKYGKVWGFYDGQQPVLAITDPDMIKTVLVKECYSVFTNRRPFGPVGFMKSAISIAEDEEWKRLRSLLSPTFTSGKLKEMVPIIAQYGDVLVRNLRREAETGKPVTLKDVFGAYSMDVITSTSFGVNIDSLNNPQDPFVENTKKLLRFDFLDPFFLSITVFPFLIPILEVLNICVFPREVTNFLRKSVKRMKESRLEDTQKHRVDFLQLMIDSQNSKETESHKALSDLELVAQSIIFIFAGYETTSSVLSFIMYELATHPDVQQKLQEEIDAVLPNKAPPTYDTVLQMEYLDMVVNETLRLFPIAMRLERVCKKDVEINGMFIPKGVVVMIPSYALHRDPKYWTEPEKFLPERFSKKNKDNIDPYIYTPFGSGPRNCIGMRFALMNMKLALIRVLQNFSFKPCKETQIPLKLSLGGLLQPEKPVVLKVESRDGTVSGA
T1 sequence (P48736 whole entry, canonical isoform): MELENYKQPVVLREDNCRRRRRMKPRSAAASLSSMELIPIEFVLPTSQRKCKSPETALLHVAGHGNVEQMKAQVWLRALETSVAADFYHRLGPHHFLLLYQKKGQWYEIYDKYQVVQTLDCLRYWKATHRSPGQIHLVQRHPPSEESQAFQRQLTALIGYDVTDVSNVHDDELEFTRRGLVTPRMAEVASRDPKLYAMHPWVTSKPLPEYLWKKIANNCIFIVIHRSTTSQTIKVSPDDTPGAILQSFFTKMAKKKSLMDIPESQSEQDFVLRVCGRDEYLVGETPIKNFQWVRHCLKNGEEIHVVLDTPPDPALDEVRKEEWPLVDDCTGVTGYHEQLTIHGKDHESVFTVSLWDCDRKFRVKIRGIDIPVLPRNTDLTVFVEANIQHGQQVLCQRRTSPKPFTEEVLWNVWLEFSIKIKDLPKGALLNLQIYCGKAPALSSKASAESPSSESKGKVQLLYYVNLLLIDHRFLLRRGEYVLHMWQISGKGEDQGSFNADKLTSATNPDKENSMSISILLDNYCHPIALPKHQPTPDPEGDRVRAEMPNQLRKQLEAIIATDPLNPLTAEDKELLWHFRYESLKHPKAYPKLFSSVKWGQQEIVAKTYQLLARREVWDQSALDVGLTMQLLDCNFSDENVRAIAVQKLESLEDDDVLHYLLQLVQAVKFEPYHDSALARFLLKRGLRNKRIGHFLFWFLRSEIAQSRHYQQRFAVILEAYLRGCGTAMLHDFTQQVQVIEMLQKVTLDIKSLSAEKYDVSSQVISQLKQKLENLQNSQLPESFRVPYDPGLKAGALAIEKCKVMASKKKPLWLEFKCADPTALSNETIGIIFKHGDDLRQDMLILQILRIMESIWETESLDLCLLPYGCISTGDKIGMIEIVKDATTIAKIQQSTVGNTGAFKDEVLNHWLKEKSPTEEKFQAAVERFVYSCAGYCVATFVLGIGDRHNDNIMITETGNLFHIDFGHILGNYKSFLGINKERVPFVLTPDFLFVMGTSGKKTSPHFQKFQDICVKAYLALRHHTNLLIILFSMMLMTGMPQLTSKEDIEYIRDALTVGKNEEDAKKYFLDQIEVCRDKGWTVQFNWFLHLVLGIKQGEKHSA
Chain of Phosphatidylinositol 4,5-bisphosphate 3-kinase catalytic subunit alpha isoform (P42336 whole entry, canonical isoform): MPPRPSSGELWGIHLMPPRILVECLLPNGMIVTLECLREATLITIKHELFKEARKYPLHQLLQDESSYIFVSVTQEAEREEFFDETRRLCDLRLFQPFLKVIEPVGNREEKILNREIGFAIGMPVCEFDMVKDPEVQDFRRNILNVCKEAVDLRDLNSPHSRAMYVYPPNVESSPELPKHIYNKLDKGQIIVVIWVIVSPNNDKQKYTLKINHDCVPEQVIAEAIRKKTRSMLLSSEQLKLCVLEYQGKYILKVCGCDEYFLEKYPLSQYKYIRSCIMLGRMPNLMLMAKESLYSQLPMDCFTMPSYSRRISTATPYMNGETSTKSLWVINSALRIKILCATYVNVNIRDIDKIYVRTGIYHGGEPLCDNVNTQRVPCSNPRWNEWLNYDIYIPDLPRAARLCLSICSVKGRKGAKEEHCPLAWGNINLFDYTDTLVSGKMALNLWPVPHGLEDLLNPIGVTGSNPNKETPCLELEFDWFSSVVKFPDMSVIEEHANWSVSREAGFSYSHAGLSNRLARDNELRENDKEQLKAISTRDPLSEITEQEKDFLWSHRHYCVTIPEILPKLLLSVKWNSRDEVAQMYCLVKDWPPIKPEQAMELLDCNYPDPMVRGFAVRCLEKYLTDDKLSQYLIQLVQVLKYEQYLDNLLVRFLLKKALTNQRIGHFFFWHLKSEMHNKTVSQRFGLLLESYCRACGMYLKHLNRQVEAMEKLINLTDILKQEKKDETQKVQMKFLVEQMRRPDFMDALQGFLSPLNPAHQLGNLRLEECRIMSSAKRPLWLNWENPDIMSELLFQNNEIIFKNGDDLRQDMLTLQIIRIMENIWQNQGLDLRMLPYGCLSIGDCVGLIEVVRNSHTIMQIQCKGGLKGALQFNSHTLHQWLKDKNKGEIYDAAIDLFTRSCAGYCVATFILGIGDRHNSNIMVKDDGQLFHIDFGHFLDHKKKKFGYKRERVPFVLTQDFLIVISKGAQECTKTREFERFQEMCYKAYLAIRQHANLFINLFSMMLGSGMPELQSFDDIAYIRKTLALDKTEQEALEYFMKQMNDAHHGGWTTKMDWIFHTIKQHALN

Compound | CLH [1] [mL/min/kg] | IC50 [2] [nM] | IC50 [3] [nM] | hepatocyte CLint at 0.5 µM [4] [µL/min/1e6 cells] | hepatocyte intrinsic clearance [5] [µL/min] | IC50 [6] [nM] | IC50 [7] [nM] | Ratio IC50 (Homo sapiens [8]) | inhibition at 30 min, 10 µM (CYP3A4) [%] | Ratio IC50 (Homo sapiens [9])
C[C@@H](C1CC1)N1Cc2cc(-c3ccn4nc(N)c(C(=O)NC5CC5)c4n3)cc(NS(C)(=O)=O)c2C1=O | 12 | 37 | 2.7 | < 1.2 | < 1.2 | 590 | 417 | 157 | 37 | 
Cc1cc(-c2ccn3nc(N)c(C(=O)N[C@@H](CO)C4CC4)c3n2)cc2c1C(=O)N([C@@H](C)C1CC1)C2 | 8.3 | 133 | 2.9 | 2.03 | 1.31 | > 10000 | > 10000 | > 3440 | 7 | > 3440
Cc1cc(-c2ccn3nc(N)c(C(=O)N[C@@H]4CC[C@@H](O)C4)c3n2)cc2c1C(=O)N([C@@H](C)C1CC1)C2 | 71.7 | 82 | 4.2 | 3.26 | 24.6 | 140 | 123 | 29 | 14 | 33
Cc1cc(-c2ccn3nc(N)c(C(=O)N[C@H]4CC[C@H](O)CC4)c3n2)cc2c1C(=O)N([C@@H](C)C1CC1)C2 | 50 | 106 | 1.2 | 4.76 | 10.8 | 188 | 61 | 51 | 26 | 156
Cc1cc(-c2ccn3nc(N)c(C(=O)Nc4cnn(C)c4)c3n2)cc2c1C(=O)N([C@@H](C)C1CC1)C2 | 43.3 | 127 | 3.4 | 13.4 | 12.2 |  |  |  | 49 | 
Cc1cc(-c2ccn3nc(N)c(C(=O)N[C@H]4CC[C@](C)(O)CC4)c3n2)cc2c1C(=O)N([C@@H](C)C1CC1)C2 | 71.7 | 76 | 3 | 8.7 | 22.1 | 240 | 155 | 53 |  | 82
C[C@@H](C1CC1)N1Cc2cc(-c3ccn4nc(N)c(C(=O)NC5CC5)c4n3)cc(C(F)(F)F)c2C1=O | 5 | 103 | 3.6 | < 1.2 | < 1.2 | 1580 | 1950 | 547 | 7 | 443
Cc1cc(-c2ccn3nc(N)c(C(=O)N[C@H]4C[C@H](O)C4)c3n2)cc2c1C(=O)N([C@@H](C)C1CC1)C2 | 40 |  |  | 11.3 | 15.7 |  |  |  | 14 | 
CNS(=O)(=O)c1cc(-c2ccn3nc(N)c(C(=O)NC4CC4)c3n2)cc2c1C(=O)N([C@@H](C)C1CC1)C2 | 35 | 36 | 2.7 | 4.46 | 4.91 | 519 | 256 | 96 | 34 | 
